{
  "source": "paper PMC3411352",
  "about": "(Biopolymers, 2011)",
  "origin": "cited, not measured here",
  "key": {"rat κ opioid receptors [1]": {"target": "T1, rat κ opioid receptors (Rattus norvegicus, UniProt P34975)", "T1 sequence (P34975 whole entry)": "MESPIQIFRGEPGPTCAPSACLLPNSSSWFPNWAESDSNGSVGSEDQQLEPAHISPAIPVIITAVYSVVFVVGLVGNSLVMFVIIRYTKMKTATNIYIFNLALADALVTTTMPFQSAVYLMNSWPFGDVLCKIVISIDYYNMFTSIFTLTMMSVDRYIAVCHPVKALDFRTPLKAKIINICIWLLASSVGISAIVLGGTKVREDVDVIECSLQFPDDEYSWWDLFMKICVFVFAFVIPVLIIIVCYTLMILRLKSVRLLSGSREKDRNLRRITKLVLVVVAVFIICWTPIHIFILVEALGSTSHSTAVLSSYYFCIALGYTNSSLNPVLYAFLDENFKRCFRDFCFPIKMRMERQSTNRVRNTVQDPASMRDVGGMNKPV", "details": "for Ki: read-out: Ki ± SEM κ, κ opioid receptors"}, "rat κ opioid receptors [2]": {"target": "T1, rat κ opioid receptors", "details": "relative to Dyn A (1-13)NH2 (0% control)"}, "κ opioid receptors [3]": {"target": "κ opioid receptors"}, "rat μ opioid receptors": {"target": "rat μ opioid receptors (Rattus norvegicus, UniProt P33535)", "sequence (P33535 whole entry)": "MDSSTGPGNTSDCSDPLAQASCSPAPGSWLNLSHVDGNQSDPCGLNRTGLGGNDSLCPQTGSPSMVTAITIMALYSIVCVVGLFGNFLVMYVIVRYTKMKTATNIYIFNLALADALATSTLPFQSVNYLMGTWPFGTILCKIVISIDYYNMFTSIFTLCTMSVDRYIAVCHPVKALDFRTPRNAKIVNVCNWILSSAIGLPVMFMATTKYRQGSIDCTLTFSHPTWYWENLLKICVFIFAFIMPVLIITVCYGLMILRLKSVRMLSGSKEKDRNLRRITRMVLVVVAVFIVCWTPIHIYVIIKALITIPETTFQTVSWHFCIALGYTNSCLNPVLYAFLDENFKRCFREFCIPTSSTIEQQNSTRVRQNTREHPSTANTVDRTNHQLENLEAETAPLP", "details": "read-out: Ki ± SEM μ"}, "κ opioid receptors [4]": {"target": "κ opioid receptors", "details": "selectivity"}},
  "note": "“And” between values parts separate entries of the source, which are not always exact repeats. Identical values can stand only once. Like-named read-outs stand apart in the source and are kept apart here.",
  "data": [
    {"substance": "Ac[Phe^1,2,3,Arg^4,D-Ala^8]Dyn A(1-11)-NH2 [Compound 1]", "values": [
      {"measurement": "Ki", "setting": "rat κ opioid receptors [1]", "value": "10 ± 3", "unit": "nM"},
      {"measurement": "AC % control @ 10 μM", "setting": "rat κ opioid receptors [2]", "value": "88 ± 8", "unit": "% control"}
    ]},
    {"substance": "[(2S)-Mdp^1]Dyn A-(1-11)NH2 [Dynantin]", "values": [
      {"measurement": "Ki", "setting": "κ opioid receptors [3]; read-out: Ki (κ)", "value": 0.82, "unit": "nM"},
      {"measurement": "Ki ratio (κ/μ/δ)", "setting": "κ opioid receptors [3]; selectivity", "value": "1/259/198"}
    ]},
    {"substance": "[NMePhe^1]arodyn [Compound 2]", "values": [
      {"measurement": "Ki", "setting": "rat κ opioid receptors [1]", "value": "4.6 nM and 4.56 nM"},
      {"measurement": "Ki ratio (μ/κ)", "setting": "rat κ opioid receptors [1]; selectivity κ over μ", "value": 1100},
      {"measurement": "Ki", "setting": "rat μ opioid receptors", "value": "5060 ± 790", "unit": "nM"},
      {"measurement": "AC % control @ 10 μM", "setting": "rat κ opioid receptors [2]", "value": "86 ± 1", "unit": "% control"}
    ]},
    {"substance": "[Pro^3]Dyn A-(1-11)NH2", "values": [
      {"measurement": "Ki ratio (κ/μ/δ)", "setting": "κ opioid receptors [4]", "value": "1/2110/3260"}
    ]}
  ]
}
